Data: paper PMC11676667, “Pharmacokinetics of Oral Cannabinoid Δ8-Tetrahydrocannabivarin and Its Main Metabolites in Healthy Participants” (Pharmaceuticals, 2024)
Where two headings read alike, the source gives them in different places.

Columns and labels:
CB2 receptors = test system: CB2 receptors; parameters: method as in PMID 21470208; conditions: in vitro; cited from earlier work
[1] = Plasma pharmacokinetics after single oral dose of Δ8-THCV in MCT oil (LC-MS/MS, non-compartmental analysis); type: in vivo, human; parameters: Clast (last quantifiable concentration): unit not given here; conditions: for plasma concentration: Predose; for concentration at 0.5 h / concentration at 1 h / concentration at 2 h / concentration at 4 h / concentration at 6 h / concentration at 8 h / AUC(0-t) / Cmax / MRT / Tmax: human; for concentration at 0.5 h / concentration at 1 h / concentration at 2 h / concentration at 4 h / concentration at 6 h / concentration at 8 h: oral; for AUC(0-t) / Cmax / MRT / Tmax: po; for MRT: read-out: MRT (mean residence time); for Tmax: read-out: tmax
In short: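 Healthy participants received single oral Δ8-THCV in MCT oil (50 mg/mL; 12.5-200 mg, or placebo) after a high-fat, high-calorie breakfast, with ≥1-week washout. Plasma (K2EDTA) sampled predose and 0.5-8 h post-dose, assayed by validated LC-MS/MS including metabolites; PK by non-compartmental analysis, sub-LLOQ values set to 0.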

[2] = 12.5 mg single oral Δ8-THCV in MCT oil, plasma, Mean (±SD)
[3] = 12.5 mg single oral Δ8-THCV in MCT oil, plasma, Median (Range)
[4] = 25 mg single oral Δ8-THCV in MCT oil, plasma, Mean (±SD)
[5] = 25 mg single oral Δ8-THCV in MCT oil, plasma, Median (Range)
[6] = 50 mg single oral Δ8-THCV in MCT oil, plasma, Mean (±SD)
[7] = 50 mg single oral Δ8-THCV in MCT oil, plasma, Median (Range)
[8] = 100 mg single oral Δ8-THCV in MCT oil, plasma, Mean (±SD)
[9] = 100 mg single oral Δ8-THCV in MCT oil, plasma, Median (Range)
[10] = 200 mg single oral Δ8-THCV in MCT oil, plasma, Mean (±SD)
[11] = 200 mg single oral Δ8-THCV in MCT oil, plasma, Median (Range)
[12] = plasma, 12.5 mg, 12.5 mg Δ8-THCV dose, Mean (SD, %CV)
[13] = plasma, 12.5 mg, 12.5 mg Δ8-THCV dose, Median (IQ Range)
[14] = plasma, 25 mg, 25 mg Δ8-THCV dose, Mean (SD, %CV)
[15] = plasma, 25 mg, 25 mg Δ8-THCV dose, Median (IQ Range)
[16] = plasma, 50 mg, 50 mg Δ8-THCV dose, Mean (SD, %CV)
[17] = plasma, 50 mg, 50 mg Δ8-THCV dose, Median (IQ Range)
[18] = plasma, 100 mg, 100 mg Δ8-THCV dose, Mean (SD, %CV)
[19] = plasma, 100 mg, 100 mg Δ8-THCV dose, Median (IQ Range)
[20] = plasma, 200 mg, 200 mg Δ8-THCV dose, Mean (SD, %CV)
[21] = plasma, 200 mg, 200 mg Δ8-THCV dose, Median (IQ Range)
[22] = plasma, 12.5 mg, 12.5 mg single oral Δ8-THCV in MCT oil, Mean (±SD)
[23] = plasma, 12.5 mg, 12.5 mg single oral Δ8-THCV in MCT oil, Median (Range)
[24] = plasma, 12.5 mg, 12.5 mg single oral Δ8-THCV in MCT oil, plasma, Mean (±SD)
[25] = plasma, 12.5 mg, 12.5 mg single oral Δ8-THCV in MCT oil, plasma, Median (Range)
[26] = plasma, 25 mg, 25 mg single oral Δ8-THCV in MCT oil, Mean (±SD)
[27] = plasma, 25 mg, 25 mg single oral Δ8-THCV in MCT oil, Median (Range)
[28] = plasma, 25 mg, 25 mg single oral Δ8-THCV in MCT oil, plasma, Mean (±SD)
[29] = plasma, 25 mg, 25 mg single oral Δ8-THCV in MCT oil, plasma, Median (Range)
[30] = plasma, 50 mg, 50 mg single oral Δ8-THCV in MCT oil, Mean (±SD)
[31] = plasma, 50 mg, 50 mg single oral Δ8-THCV in MCT oil, Median (Range)
[32] = plasma, 50 mg, 50 mg single oral Δ8-THCV in MCT oil, plasma, Mean (±SD)
[33] = plasma, 50 mg, 50 mg single oral Δ8-THCV in MCT oil, plasma, Median (Range)
[34] = plasma, 100 mg, 100 mg single oral Δ8-THCV in MCT oil, Mean (±SD)
[35] = plasma, 100 mg, 100 mg single oral Δ8-THCV in MCT oil, Median (Range)
[36] = plasma, 100 mg, 100 mg single oral Δ8-THCV in MCT oil, plasma, Mean (±SD)
[37] = plasma, 100 mg, 100 mg single oral Δ8-THCV in MCT oil, plasma, Median (Range)
[38] = plasma, 200 mg, 200 mg single oral Δ8-THCV in MCT oil, Mean (±SD)
[39] = plasma, 200 mg, 200 mg single oral Δ8-THCV in MCT oil, Median (Range)
[40] = plasma, 200 mg, 200 mg single oral Δ8-THCV in MCT oil, plasma, Mean (±SD)
[41] = plasma, 200 mg, 200 mg single oral Δ8-THCV in MCT oil, plasma, Median (Range)

CCCc1cc(O)c2c(c1)OC(C)(C)[C@@H]1CC=C(CO)C[C@@H]21 (racemic) [11-OH-Δ8-THCV, (±)-11-hydroxy-Δ8-THCV]
CB2 receptor activation (CB2 receptors): activate CB2 receptors | Clast (last quantifiable concentration) [1, 2]: 0.8 (±0.2) | tlast (time to last quantifiable concentration) [1, 2]: 3.6 (±1.7) | Clast (last quantifiable concentration) [1, 3]: 0.8 (0.6–1.1) | tlast (time to last quantifiable concentration) [1, 3]: 4 (2–6) | Clast (last quantifiable concentration) [1, 4]: 0.8 (±0.1) | tlast (time to last quantifiable concentration) [1, 4]: 4.3 (±1.8) | Clast (last quantifiable concentration) [1, 5]: 0.8 (0.6–1) | tlast (time to last quantifiable concentration) [1, 5]: 4 (2–6) | Clast (last quantifiable concentration) [1, 6]: 0.9 (±0.3) | tlast (time to last quantifiable concentration) [1, 6]: 7.8 (±0.6) | Clast (last quantifiable concentration) [1, 7]: 0.8 (0.6–1.5) | tlast (time to last quantifiable concentration) [1, 7]: 8 (6–8) | Clast (last quantifiable concentration) [1, 8]: 1.4 (±0.9) | tlast (time to last quantifiable concentration) [1, 8]: 7.6 (±1.2) | Clast (last quantifiable concentration) [1, 9]: 1.1 (0.5–3.8) | tlast (time to last quantifiable concentration) [1, 9]: 8 (4–8) | Clast (last quantifiable concentration) [1, 10]: 3.7 (±2.6) | tlast (time to last quantifiable concentration) [1, 10]: 8 (±0) | Clast (last quantifiable concentration) [1, 11]: 3.1 (1.2–11.3) | tlast (time to last quantifiable concentration) [1, 11]: 8 (8–8) | plasma concentration ([1]; 12.5 mg Δ8-THCV dose, Mean (SD, %CV)): 0 (±0, --) ng/mL | plasma concentration ([1]; 12.5 mg Δ8-THCV dose, Median (IQ Range)): 0 (0–0) ng/mL | plasma concentration ([1]; 25 mg Δ8-THCV dose, Mean (SD, %CV)): 0 (±0, --) ng/mL | plasma concentration ([1]; 25 mg Δ8-THCV dose, Median (IQ Range)): 0 (0–0) ng/mL | plasma concentration ([1]; 50 mg Δ8-THCV dose, Mean (SD, %CV)): 0 (±0, --) ng/mL | plasma concentration ([1]; 50 mg Δ8-THCV dose, Median (IQ Range)): 0 (0–0) ng/mL | plasma concentration ([1]; 100 mg Δ8-THCV dose, Mean (SD, %CV)): 0 (±0, --) ng/mL | plasma concentration ([1]; 100 mg Δ8-THCV dose, Median (IQ Range)): 0 (0–0) ng/mL | plasma concentration ([1]; 200 mg Δ8-THCV dose, Mean (SD, %CV)): 0 (±0, --) ng/mL | plasma concentration ([1]; 200 mg Δ8-THCV dose, Median (IQ Range)): 0 (0–0) ng/mL | median AUClast ratio Δ8-THCV-COOH/Δ8-THCV/11-OH-Δ8-THCV ([1]; after the 200 mg dose, Δ8-THCV = 1): 0.18 | concentration at 0.5 h [1, 12]: 0 ng/mL | concentration at 0.5 h [1, 13]: 0 ng/mL | concentration at 1 h [1, 12]: 0 ng/mL | concentration at 1 h [1, 13]: 0 ng/mL | concentration at 2 h [1, 12]: 0.1 ng/mL | concentration at 2 h [1, 13]: 0 ng/mL | concentration at 4 h [1, 12]: 0.1 ng/mL | concentration at 4 h [1, 13]: 0 ng/mL | concentration at 6 h [1, 12]: 0.1 ng/mL | concentration at 6 h [1, 13]: 0 ng/mL | concentration at 8 h [1, 12]: 0 ng/mL | concentration at 8 h [1, 13]: 0 ng/mL | concentration at 0.5 h [1, 14]: 0 ng/mL | concentration at 0.5 h [1, 15]: 0 ng/mL | concentration at 1 h [1, 14]: 0.1 ng/mL | concentration at 1 h [1, 15]: 0 ng/mL | concentration at 2 h [1, 14]: 0.3 ng/mL | concentration at 2 h [1, 15]: 0 ng/mL | concentration at 4 h [1, 14]: 0.2 ng/mL | concentration at 4 h [1, 15]: 0 ng/mL | concentration at 6 h [1, 14]: 0.2 ng/mL | concentration at 6 h [1, 15]: 0 ng/mL | concentration at 8 h [1, 14]: 0 ng/mL | concentration at 8 h [1, 15]: 0 ng/mL | concentration at 0.5 h [1, 16]: 0 ng/mL | concentration at 0.5 h [1, 17]: 0 ng/mL | concentration at 1 h [1, 16]: 0.1 ng/mL | concentration at 1 h [1, 17]: 0 ng/mL | concentration at 2 h [1, 16]: 0.4 ng/mL | concentration at 2 h [1, 17]: 0 ng/mL | concentration at 4 h [1, 16]: 0.6 ng/mL | concentration at 4 h [1, 17]: 0 ng/mL | concentration at 6 h [1, 16]: 1 ng/mL | concentration at 6 h [1, 17]: 0.9 ng/mL | concentration at 8 h [1, 16]: 0.6 ng/mL | concentration at 8 h [1, 17]: 0.6 ng/mL | concentration at 0.5 h [1, 18]: 0 ng/mL | concentration at 0.5 h [1, 19]: 0 ng/mL | concentration at 1 h [1, 18]: 1.4 ng/mL | concentration at 1 h [1, 19]: 0.5 ng/mL | concentration at 2 h [1, 18]: 1.8 ng/mL | concentration at 2 h [1, 19]: 1 ng/mL | concentration at 4 h [1, 18]: 2.1 ng/mL | concentration at 4 h [1, 19]: 1.3 ng/mL | concentration at 6 h [1, 18]: 2.4 ng/mL | concentration at 6 h [1, 19]: 1.5 ng/mL | concentration at 8 h [1, 18]: 1.3 ng/mL | concentration at 8 h [1, 19]: 1.1 ng/mL | concentration at 0.5 h [1, 20]: 0 ng/mL | concentration at 0.5 h [1, 21]: 0 ng/mL | concentration at 1 h [1, 20]: 1.2 ng/mL | concentration at 1 h [1, 21]: 0 ng/mL | concentration at 2 h [1, 20]: 4.5 ng/mL | concentration at 2 h [1, 21]: 1.8 ng/mL | concentration at 4 h [1, 20]: 5.2 ng/mL | concentration at 4 h [1, 21]: 3.4 ng/mL | concentration at 6 h [1, 20]: 4.6 ng/mL | concentration at 6 h [1, 21]: 3.7 ng/mL | concentration at 8 h [1, 20]: 3.7 ng/mL | concentration at 8 h [1, 21]: 3.1 ng/mL | AUC(0-t) [1, 22]: 0.7 ng·h/mL | Cmax [1, 22]: 0.8 ng/mL | AUC(0-t) [1, 23]: 0.8 ng·h/mL | Cmax [1, 23]: 0.8 ng/mL | MRT [1, 24]: 1.5 h | Tmax [1, 24]: 3.4 h | MRT [1, 25]: 1.4 h | Tmax [1, 25]: 4 h | AUC(0-t) [1, 26]: 1.5 ng·h/mL | Cmax [1, 26]: 0.9 ng/mL | AUC(0-t) [1, 27]: 0.8 ng·h/mL | Cmax [1, 27]: 0.8 ng/mL | MRT [1, 28]: 3.6 h | Tmax [1, 28]: 3.7 h | MRT [1, 29]: 3.6 h | Tmax [1, 29]: 4 h | AUC(0-t) [1, 30]: 6.2 ng·h/mL | Cmax [1, 30]: 2 ng/mL | AUC(0-t) [1, 31]: 5.3 ng·h/mL | Cmax [1, 31]: 1.9 ng/mL | MRT [1, 32]: 5.7 h | Tmax [1, 32]: 5 h | MRT [1, 33]: 6.1 h | Tmax [1, 33]: 6 h | AUC(0-t) [1, 34]: 13.9 ng·h/mL | Cmax [1, 34]: 4.3 ng/mL | AUC(0-t) [1, 35]: 12.4 ng·h/mL | Cmax [1, 35]: 3.4 ng/mL | MRT [1, 36]: 4.6 h | Tmax [1, 36]: 4.2 h | MRT [1, 37]: 4.3 h | Tmax [1, 37]: 5 h | AUC(0-t) [1, 38]: 30.8 ng·h/mL | Cmax [1, 38]: 8.7 ng/mL | AUC(0-t) [1, 39]: 29.5 ng·h/mL | Cmax [1, 39]: 6.4 ng/mL | MRT [1, 40]: 4.8 h | Tmax [1, 40]: 4.7 h | MRT [1, 41]: 4.7 h | Tmax [1, 41]: 4 h | number of positive plasma samples ([1]; of 504 plasma samples from 15 participants after oral Δ8-THCV): 157 | concentration in representative plasma sample ([1]; one subject after oral Δ8-THCV in MCT oil, Figure A1): 11.8 ng/mL | tmax later after doses greater than 50 mg compared to the 12.5 mg and 25 mg doses ([1]; oral Δ8-THCV, plasma): 1.3 fold
